In US11224224B2, “Thiobenzoimidazole as fungicides” (REDAG CROP PROTECTION LTD, priority 2017, dated 2022):
Values after ≈ are worked out from the molar mass of the structure shown.

Tests used:
Type in all cases: cell-based
Pythium ultimum [1] = assay: Amended agar assay (PDA), colony growth; design: key to % control Pythium ultimum 20 ppm: D: no control detected at this concentration; C: up to 50% control; B: from 50 to 99% control; A: a control of greater than 99%, i.e. no detectable colony growth; conditions: for % control Pythium ultimum 20 ppm / inhibition of growth at 20 ppm: 20 ppm in amended PDA, 18° C., reduction in colony growth vs control plate; for EC50 / inhibition of growth at 20 ppm: Globisporangium ultimum; for EC50: amended agar, 5-fold dilutions
Description: (§1) Testing was carried out on potato dextrose agar (PDA) amended with each compound at a test concentration of 20 ppm. Amended agar was poured into three replicate 9 cm petri dishes. Each replicate dish was inoculated in the centre with a 5 mm agar plug taken from the leading edge of a culture aged between 2 and 7 days old; the age of the culture was dependant on the growth rate of the pathogen being tested. The test pathogens were Pythium ultimum and Phytophthora cinnamomi. Plates were incubated at 18° C. and the diameter of each colony measured before growth on the fastest growing plate reached the plate edge. This varied between 2 and 7 days depending on the growth rate of test pathogens. The % reduction in colony growth compared to the control plate was calculated for each pathogen. The results are provided in Table 1, in which D represents no control detected at this concentration; C represents up to 50% control; B from 50 to 99% control; and A represents a control of greater than 99%, i.e. no detectable colony growth.
(§2) Alternatively, or in addition, the same assay was conducted at descending test concentrations with 5-fold dilutions typically down to 0.032 ppm though sometimes as low as 0.00026 ppm, and an EC50 (the concentration at which 50% control would be achieved) was determined. The results are provided in Table 1 in which G represents an EC50 above 20 ppm, F represents an EC50 of 1-20 ppm and E represents and EC50 less than 1 ppm.

Phytophthora cinnamomi = assay: Amended agar assay (PDA), colony growth; design: key to % control Phytophthora spp. 20 ppm: D: no control detected at this concentration; C: up to 50% control; B: from 50 to 99% control; A: a control of greater than 99%, i.e. no detectable colony growth; conditions: for inhibition of growth at 20 ppm / EC50: Phytophthora cinnamomi; for inhibition of growth at 20 ppm / % control Phytophthora spp. 20 ppm: 20 ppm in amended PDA, 18° C., reduction in colony growth vs control plate; for inhibition of growth at 20 ppm: read-out: % control Phytophthora spp. 20 ppm; for EC50: amended agar, 5-fold dilutions (cells without *), read-out: EC50 Phytophthora spp.
Description: as §1, §2

oomycete plant pathogens = assay: Fungicidal activity testing, overall summary; conditions: summary statement on Table 1
Description: The activity of compounds of the invention was assessed by testing against certain oomycete plant pathogens and representative data are presented in Table 1.

Pythium ultimum [2] = assay: Amended agar assay (PDA), colony growth; conditions: Globisporangium ultimum; read-out: % control Pythium ultimum 2 ppm

Row | Compound | % control Pythium ultimum 20 ppm (Pythium ultimum [1]) | inhibition of growth at 20 ppm (Phytophthora cinnamomi) | EC50 (Pythium ultimum [1]) | % control Phytophthora spp. 20 ppm (Phytophthora cinnamomi) | EC50 (Phytophthora cinnamomi) | inhibition of growth at 20 ppm (Pythium ultimum [1]) | control over the pathogens tested (oomycete plant pathogens) | inhibition of growth at 2 ppm (Pythium ultimum [2])
1 | Cn1nnnc1-n1c(SCc2cccc(C(=O)O)n2)nc2ccccc21 [Compound 29] | D | < 50% | – | – | – | – | – | –
2 | Cn1nnnc1-n1c(SCc2cnc(Cl)s2)nc2ccccc21 [Compound 30] | D | – | > 20 µg/mL | D | > 20 µg/mL | – | – | –
3 | c1ccc(CSc2nc3ccccc3n2-c2ncon2)nc1 [Compound 31] | – | – | > 20 µg/mL | – | > 20 µg/mL | < 50% | – | –
4 | c1ccc(CSc2nc3ccccc3n2-c2ccccn2)nc1 [Compound 32] | D | – | – | D | – | – | – | –
5 | O=C(Nc1cccc(CSc2nc3ccccc3n2-c2ccccn2)n1)C(F)(F)Oc1ccccc1 [Compound 33] | D | – | > 20 µg/mL | D | > 20 µg/mL | – | – | –
6 | Cn1nnnc1-n1c(SCc2cccc(NC(=O)C(F)(F)Oc3ccccc3)n2)nc2ccccc21 [Example 1, 2,2-Difluoro-N-(6-(((1-(1-methyl-1H-tetrazol-5-yl)-1H-benzo[d]imidazol-2-yl)thio)methyl)pyridin-2-yl)-2-phenoxyacetamide] | – | > 99% | < 1 µg/mL | – | < 1 µg/mL | > 99% | good to excellent control | –
7 | Cn1nnnc1-n1c(SCc2ccccn2)nc2ccccc21 [Example 2] | – | 50 to 99% | 1 to 20 µg/mL (≈ 3.09 to 61.8 µM) | – | < 1 µg/mL | > 99% | good to excellent control | > 99%
8 | Cn1nnnc1-n1c(SCc2csc(N)n2)nc2ccccc21 [Example 3] | – | > 99% | – | – | – | > 99% | good to excellent control | –
9 | Cc1cccnc1-n1c(SCc2cccc(NCC(F)(F)Oc3ccccc3)n2)nc2ccccc21 [Example 4] | – | – | 1 to 20 µg/mL (≈ 1.99 to 39.7 µM) | – | 1 to 20 µg/mL (≈ 1.99 to 39.7 µM) | – | – | –
10 | Cn1nccc1-n1c(SCc2ccccn2)nc2ccccc21 [Example 5] | – | < 50% | – | – | – | < 50% | – | –
11 | Cc1noc(-n2c(SCc3ccccn3)nc3ccccc32)c1C [Example 6] | – | 50 to 99% | – | – | – | 50 to 99% | – | –
12 | Cn1nnnc1-n1c(SCc2ccccn2)nc2ccc(F)cc21 [Example 7] | – | – | < 1 µg/mL | – | < 1 µg/mL | – | good to excellent control | –
13 | Cn1nnnc1-n1c(SCc2cccc(NC(=O)C(F)(F)Oc3ccccc3)n2)nc2ccc(F)cc21 [Example 8] | – | – | < 1 µg/mL | – | < 1 µg/mL | – | good to excellent control | 50 to 99%
14 | Cn1nnnc1-n1c(SCc2cccc(NC(=O)OC(C)(C)C)n2)nc2ccccc21 [Example 9] | – | – | < 1 µg/mL | – | < 1 µg/mL | – | good to excellent control | –
15 | Cc1cccnc1-n1c(SCc2ccccn2)nc2ccccc21 [Example 10] | – | < 50% | – | – | – | 50 to 99% | – | –
16 | CC(=O)Nc1nc(CSc2nc3ccccc3n2-c2nnnn2C)cs1 [Example 11] | – | – | < 1 µg/mL | – | < 1 µg/mL | – | good to excellent control | –
17 | Cn1nnnc1-n1c(SCc2cscn2)nc2ccccc21 [Example 12] | – | – | < 1 µg/mL | – | < 1 µg/mL | – | good to excellent control | –
18 | Cc1cccc(CSc2nc3ccccc3n2-c2nnnn2C)n1 [Example 13] | – | – | > 20 µg/mL | D | > 20 µg/mL | < 50% | – | –
19 | Cc1cc(-n2c(SCc3ccccn3)nc3ccccc32)sn1 [Example 14] | – | < 50% | – | – | – | < 50% | – | –
20 | c1ccc(CSc2nc3ccccc3n2-c2ccon2)nc1 [Example 15] | – | – | > 20 µg/mL | D | > 20 µg/mL | < 50% | – | –

Row | Compound | % control Pythium ultimum 20 ppm (Pythium ultimum [1]) | inhibition of growth at 20 ppm (Phytophthora cinnamomi) | EC50 (Pythium ultimum [1]) | % control Phytophthora spp. 20 ppm (Phytophthora cinnamomi) | EC50 (Phytophthora cinnamomi) | inhibition of growth at 20 ppm (Pythium ultimum [1]) | control over the pathogens tested (oomycete plant pathogens) | inhibition of growth at 2 ppm (Pythium ultimum [2])
21 | Cc1nc(CSc2nc3ccccc3n2-c2nnnn2C)cs1 [Example 16] | – | 50 to 99% | 1 to 20 µg/mL (≈ 2.91 to 58.2 µM) | – | 1 to 20 µg/mL (≈ 2.91 to 58.2 µM) | > 99% | good to excellent control | –
22 | CNc1nc(CSc2nc3ccccc3n2-c2nnnn2C)cs1 [Example 17] | – | > 99% | < 1 µg/mL | – | < 1 µg/mL | > 99% | good to excellent control | –
23 | COC(=O)c1cccc(CSc2nc3ccccc3n2-c2nnnn2C)n1 [Example 18] | – | – | – | D | – | < 50% | – | –
24 | Cn1nnnc1-n1c(SCc2cc3ccccc3cn2)nc2ccccc21 [Example 19] | – | 50 to 99% | – | – | – | 50 to 99% | – | –
25 | Cc1nccnc1-n1c(SCc2ccccn2)nc2ccccc21 [Example 20] | – | – | > 20 µg/mL | D | > 20 µg/mL | < 50% | – | –
26 | Cn1nnnc1-n1c(SCc2ccccn2)nc2c(F)cc(F)cc21 [Example 21] | – | > 99% | < 1 µg/mL | – | < 1 µg/mL | > 99% | good to excellent control | –
27 | Cn1nnnc1-n1c(SCc2csc(NC(=O)C(F)(F)Oc3ccccc3)n2)nc2ccccc21 [Example 22] | – | – | < 1 µg/mL | – | < 1 µg/mL | – | good to excellent control | –
28 | Cn1nnnc1-n1c(SCc2csc(NC(=O)OC(C)(C)C)n2)nc2ccccc21 [Example 23] | – | – | < 1 µg/mL | – | < 1 µg/mL | – | good to excellent control | –
29 | COC(=O)CSc1nc2ccccc2n1-c1nnnn1C [Example 24] | – | 50 to 99% | – | – | – | < 50% | – | –
30 | Cn1nnnc1-n1c(SCC(=O)N2CCCC2)nc2ccccc21 [Example 25] | – | – | < 1 µg/mL | – | < 1 µg/mL | – | good to excellent control | 50 to 99%
31 | Cn1nnnc1-n1c(SCc2cccc(N)n2)nc2ccccc21 [Example 26, 6-(((1-(1-Methyl-1H-tetrazol-5-yl)-1H-benzo[d]imidazol-2-yl)thio)methyl)pyridin-2-amine] | – | > 99% | – | – | – | > 99% | good to excellent control | –
32 | CC(=O)Nc1cccc(CSc2nc3ccccc3n2-c2nnnn2C)n1 [Example 27, N-(6-(((1-(1-Methyl-1H-tetrazol-5-yl)-1H-benzo[d]imidazol-2-yl)thio)methyl)pyridin-2-yl)acetamide] | – | 50 to 99% | – | – | – | > 99% | good to excellent control | –
33 | CCOC(=O)Nc1cccc(CSc2nc3ccccc3n2-c2nnnn2C)n1 [Example 28, Ethyl (6-(((1-(1-methyl-1H-tetrazol-5-yl)-1H-benzo[d]imidazol-2-yl)thio)methyl)pyridin-2-yl)carbamate] | – | – | < 1 µg/mL | – | < 1 µg/mL | – | good to excellent control | –
34 | O=C(Nc1cccc(CSc2nc3ccccc3n2-c2ncncc2Cl)n1)C(F)(F)Oc1ccccc1 [Example 45] | – | – | < 1 µg/mL | – | < 1 µg/mL | – | good to excellent control | –
35 | COC(=O)c1cccc(CSc2nc3ccccc3n2-c2ncccc2C)n1 [Example 46] | D | < 50% | – | – | – | – | – | –
36 | Cn1ccnc1-n1c(SCc2ccccn2)nc2ccccc21 [Example 49] | – | 50 to 99% | 1 to 20 µg/mL (≈ 3.11 to 62.2 µM) | – | 1 to 20 µg/mL (≈ 3.11 to 62.2 µM) | > 99% | good to excellent control | –
37 | Cn1ccnc1-n1c(SCc2cccc(NC(=O)C(F)(F)Oc3ccccc3)n2)nc2ccccc21 [Example 50] | – | – | < 1 µg/mL | – | < 1 µg/mL | – | good to excellent control | –
38 | Cn1nnnc1-n1c(SCc2ccccn2)nc2ccc(Br)cc21 [Example 52] | – | 50 to 99% | 1 to 20 µg/mL (≈ 2.49 to 49.7 µM) | – | < 1 µg/mL | 50 to 99% | good to excellent control | –
39 | Cn1nnnc1-n1c(SCc2csc(NC(=O)OC(C)(C)C)n2)nc2ccc(Br)cc21 [Example 53] | – | – | < 1 µg/mL | – | < 1 µg/mL | – | good to excellent control | –
